Data on 10 molecules can be found in ChEMBL document CHEMBL5233239, “Matrix metalloproteinase-9 (MMP-9) and its inhibitors in cancer: A minireview” (Eur J Med Chem, 2020).

Molecules are shown by their SMILES. Bounds are passed on as bounds.

Data set [1] has as its target T1, Interstitial collagenase (Homo sapiens, UniProt P03956).
T1 sequence (P03956 whole entry): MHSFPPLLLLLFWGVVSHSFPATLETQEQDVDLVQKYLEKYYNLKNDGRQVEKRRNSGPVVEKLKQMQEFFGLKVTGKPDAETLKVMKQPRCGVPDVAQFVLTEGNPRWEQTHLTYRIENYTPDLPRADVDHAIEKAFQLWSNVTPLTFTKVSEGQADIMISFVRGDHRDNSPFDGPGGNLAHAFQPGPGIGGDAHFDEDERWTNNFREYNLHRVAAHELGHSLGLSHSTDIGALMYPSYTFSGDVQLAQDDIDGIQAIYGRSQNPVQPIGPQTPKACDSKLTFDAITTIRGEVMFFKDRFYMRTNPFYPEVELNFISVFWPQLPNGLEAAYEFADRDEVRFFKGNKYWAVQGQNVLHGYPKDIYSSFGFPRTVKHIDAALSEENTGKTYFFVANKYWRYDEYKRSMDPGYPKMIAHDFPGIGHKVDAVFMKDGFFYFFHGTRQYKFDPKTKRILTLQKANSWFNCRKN
Description: Inhibition of MMP-1 (unknown origin).

The target in data set [2] is T2, Matrix metalloproteinase-9 (Homo sapiens, UniProt P14780). Description: Inhibition of MMP-9 (unknown origin).
T2 sequence (P14780 whole entry): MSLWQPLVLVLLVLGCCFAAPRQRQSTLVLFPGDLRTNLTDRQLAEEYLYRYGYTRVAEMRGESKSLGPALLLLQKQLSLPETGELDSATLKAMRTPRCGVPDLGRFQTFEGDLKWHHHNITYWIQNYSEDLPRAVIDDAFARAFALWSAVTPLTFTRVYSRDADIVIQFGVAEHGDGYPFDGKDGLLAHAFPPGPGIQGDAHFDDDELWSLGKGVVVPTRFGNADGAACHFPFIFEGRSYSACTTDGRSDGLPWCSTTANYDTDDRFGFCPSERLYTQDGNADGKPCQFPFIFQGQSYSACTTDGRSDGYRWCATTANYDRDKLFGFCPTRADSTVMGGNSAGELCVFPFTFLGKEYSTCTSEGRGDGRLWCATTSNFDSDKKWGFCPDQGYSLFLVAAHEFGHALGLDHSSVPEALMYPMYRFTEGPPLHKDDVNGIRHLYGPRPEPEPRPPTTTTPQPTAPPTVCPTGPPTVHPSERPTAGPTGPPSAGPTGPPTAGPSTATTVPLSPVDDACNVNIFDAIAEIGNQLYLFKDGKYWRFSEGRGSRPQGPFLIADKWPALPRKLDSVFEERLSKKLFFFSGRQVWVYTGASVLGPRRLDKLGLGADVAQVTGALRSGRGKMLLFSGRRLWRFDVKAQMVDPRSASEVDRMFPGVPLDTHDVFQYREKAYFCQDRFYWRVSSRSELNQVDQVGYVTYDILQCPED
Data set [3] concerns the target T3, Neutrophil collagenase (Homo sapiens, UniProt P22894). As to the kind of experiment: Inhibition of MMP-8 (unknown origin).
Target sequence in this assay (P22894 whole entry): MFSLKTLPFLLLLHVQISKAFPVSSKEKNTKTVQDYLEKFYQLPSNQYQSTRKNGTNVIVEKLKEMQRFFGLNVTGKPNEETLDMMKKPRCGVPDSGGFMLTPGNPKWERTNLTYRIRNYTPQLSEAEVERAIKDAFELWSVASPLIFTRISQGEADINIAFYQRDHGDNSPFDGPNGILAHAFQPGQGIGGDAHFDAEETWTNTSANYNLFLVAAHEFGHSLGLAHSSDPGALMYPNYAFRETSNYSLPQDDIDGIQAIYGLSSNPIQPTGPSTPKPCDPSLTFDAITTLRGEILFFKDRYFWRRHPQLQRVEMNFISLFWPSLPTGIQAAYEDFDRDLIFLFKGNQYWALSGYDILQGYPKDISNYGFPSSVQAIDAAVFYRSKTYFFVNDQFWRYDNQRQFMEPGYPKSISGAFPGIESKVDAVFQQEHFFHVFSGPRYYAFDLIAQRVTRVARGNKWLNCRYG
Data set [4] deals with T4, Matrilysin (Homo sapiens, UniProt P09237).
T4 sequence (P09237 whole entry): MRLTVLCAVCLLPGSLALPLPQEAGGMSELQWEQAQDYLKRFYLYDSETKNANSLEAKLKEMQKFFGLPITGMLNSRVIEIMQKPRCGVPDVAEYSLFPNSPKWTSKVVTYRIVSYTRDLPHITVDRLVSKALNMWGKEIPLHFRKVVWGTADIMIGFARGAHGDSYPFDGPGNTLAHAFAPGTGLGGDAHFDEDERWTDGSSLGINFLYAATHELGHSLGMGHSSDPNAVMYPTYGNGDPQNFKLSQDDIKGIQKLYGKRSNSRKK
Description: Inhibition of MMP-7 (unknown origin).

Data set [5] concerns the target T2, Matrix metalloproteinase-9. Description: Inhibition of human MMP-9.
In data set [6] the target is T5, 72 kDa type IV collagenase (Homo sapiens, UniProt P08253). Description: Inhibition of human MMP-2.
Target sequence in this assay (P08253 whole entry, the tested form may be a part): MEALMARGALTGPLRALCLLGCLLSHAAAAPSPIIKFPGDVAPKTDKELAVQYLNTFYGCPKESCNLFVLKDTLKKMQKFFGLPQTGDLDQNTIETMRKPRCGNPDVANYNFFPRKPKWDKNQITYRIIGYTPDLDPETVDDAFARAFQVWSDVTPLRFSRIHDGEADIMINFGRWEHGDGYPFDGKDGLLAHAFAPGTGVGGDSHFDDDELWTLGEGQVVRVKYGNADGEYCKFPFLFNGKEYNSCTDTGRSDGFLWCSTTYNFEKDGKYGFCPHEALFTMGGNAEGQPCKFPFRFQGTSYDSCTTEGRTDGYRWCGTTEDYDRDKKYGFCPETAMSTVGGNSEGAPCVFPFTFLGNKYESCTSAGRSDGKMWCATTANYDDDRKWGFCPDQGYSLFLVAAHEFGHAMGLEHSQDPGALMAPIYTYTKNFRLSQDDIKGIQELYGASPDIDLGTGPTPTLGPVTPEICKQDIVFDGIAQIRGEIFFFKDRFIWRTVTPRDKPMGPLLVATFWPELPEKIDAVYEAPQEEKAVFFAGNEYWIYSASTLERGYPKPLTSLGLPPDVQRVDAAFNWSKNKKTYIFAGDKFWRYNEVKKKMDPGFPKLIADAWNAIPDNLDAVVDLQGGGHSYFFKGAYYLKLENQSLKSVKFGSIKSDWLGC
For data set [7], the target named is Disintegrin and metalloproteinase domain-containing protein 17 (Homo sapiens, UniProt P78536). Description: Inhibition of TACE (unknown origin).
Chain of Disintegrin and metalloproteinase domain-containing protein 17 (P78536 whole entry, the tested form may be a part): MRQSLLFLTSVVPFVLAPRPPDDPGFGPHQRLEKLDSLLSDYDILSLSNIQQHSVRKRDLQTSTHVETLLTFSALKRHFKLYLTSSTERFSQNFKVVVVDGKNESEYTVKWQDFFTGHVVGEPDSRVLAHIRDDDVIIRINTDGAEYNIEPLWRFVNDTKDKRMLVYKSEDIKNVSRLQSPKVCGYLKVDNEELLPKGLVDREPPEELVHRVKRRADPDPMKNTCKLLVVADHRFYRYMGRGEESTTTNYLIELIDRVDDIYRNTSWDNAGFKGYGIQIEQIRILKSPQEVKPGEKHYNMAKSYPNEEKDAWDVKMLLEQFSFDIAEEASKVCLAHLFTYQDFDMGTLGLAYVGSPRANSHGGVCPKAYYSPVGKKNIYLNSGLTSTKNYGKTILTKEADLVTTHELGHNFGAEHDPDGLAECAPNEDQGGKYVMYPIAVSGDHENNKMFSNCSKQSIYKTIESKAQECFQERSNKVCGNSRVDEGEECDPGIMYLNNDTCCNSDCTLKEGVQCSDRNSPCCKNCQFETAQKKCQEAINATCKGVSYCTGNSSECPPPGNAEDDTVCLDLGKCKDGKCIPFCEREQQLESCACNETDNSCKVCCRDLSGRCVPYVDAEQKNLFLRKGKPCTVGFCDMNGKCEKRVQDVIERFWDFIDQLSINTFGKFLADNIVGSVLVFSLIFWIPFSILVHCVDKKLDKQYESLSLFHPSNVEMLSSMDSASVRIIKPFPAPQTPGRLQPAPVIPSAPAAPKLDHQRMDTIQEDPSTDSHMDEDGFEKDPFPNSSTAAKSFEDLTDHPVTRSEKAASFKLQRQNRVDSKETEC
A further data set concerns the target Collagenase 3 (Homo sapiens, UniProt P45452).
The target in data set [8] is T5, 72 kDa type IV collagenase. As to the kind of experiment: Inhibition of MMP-2 (unknown origin) by fluorimetric assay.
Target sequence in this assay (P08253 whole entry, the tested form may be a part): as the sequence (P08253 whole entry, the tested form may be a part) above
The target of data set [9] is T2, Matrix metalloproteinase-9. Description: Inhibition of MMP-9 (unknown origin) by fluorimetric assay.
Data set [10] has as its target T2, Matrix metalloproteinase-9. As to the kind of experiment: Inhibition of recombinant human MMP9 using […] as substrate incubated for 20 to 30 mins by fluorescence microplate reader analysis.
Data set [11] addresses T5, 72 kDa type IV collagenase. As to the kind of experiment: Inhibition of recombinant human full length MMP2 using […] as substrate incubated for 20 to 30 mins by fluorescence microplate reader analysis.
Target sequence in this assay (P08253 whole entry, the tested form may be a part): as above
Data set [12] deals with T6, Stromelysin-1 (Homo sapiens, UniProt P08254). Description: Inhibition of recombinant human MMP3 expressed in Escherichia coli BL21 (DE3) using [3H]transferrin as substrate incubated for 3 hrs by scintillation counter analysis.
Target sequence in this assay (P08254 whole entry): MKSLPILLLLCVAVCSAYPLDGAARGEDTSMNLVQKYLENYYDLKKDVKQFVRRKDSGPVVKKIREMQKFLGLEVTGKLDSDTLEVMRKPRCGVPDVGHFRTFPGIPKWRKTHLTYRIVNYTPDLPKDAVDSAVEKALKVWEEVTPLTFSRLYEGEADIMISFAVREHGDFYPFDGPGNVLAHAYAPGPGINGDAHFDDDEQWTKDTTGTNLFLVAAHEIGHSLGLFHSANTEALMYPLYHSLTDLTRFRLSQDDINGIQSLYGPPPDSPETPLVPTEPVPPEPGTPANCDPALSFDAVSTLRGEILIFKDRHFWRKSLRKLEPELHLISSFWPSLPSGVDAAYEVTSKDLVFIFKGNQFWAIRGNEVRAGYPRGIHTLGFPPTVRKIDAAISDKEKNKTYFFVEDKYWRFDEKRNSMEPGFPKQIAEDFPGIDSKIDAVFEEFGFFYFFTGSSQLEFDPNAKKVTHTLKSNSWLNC
Data set [13] has as its target T3, Neutrophil collagenase. As to the kind of experiment: Inhibition of recombinant human MMP8 using […] as substrate incubated for 20 to 30 mins by fluorescence microplate reader analysis.
Target sequence in this assay (P22894 whole entry): as the sequence (P22894 whole entry) above
Data set [14] has as its target T4, Matrilysin. As to the kind of experiment: Inhibition of recombinant human MMP7 using […] as substrate incubated for 20 to 30 mins by fluorescence microplate reader analysis.
Data set [15] has as its target T1, Interstitial collagenase. Description: Inhibition of recombinant human MMP1 expressed in Escherichia coli BL21 (DE3) using Mca-Pro-Leu-Gly-Leu-Dpa-Ala-Arg-NH2 as substrate incubated for 20 to 30 mins by fluorescence assay.
The target in data set [16] is T1, Interstitial collagenase. Description: Inhibition of MMP-1 (unknown origin) by fluorimetric assay.
The target in data set [17] is T2, Matrix metalloproteinase-9. As to the kind of experiment: Inhibition of MMP-9 (unknown origin) using Ac-Pro-Leu-Gly-SCH(CH2 CH(CH3)2)CO-Leu-Gly-OCH2CH3 as substrate preincubated of 0.5 hrs followed by substrate addition and measured after 3 hrs by fluorescence analysis.
A short description of data set [18]: Cmax in mouse plasma at 200 mg/kg, po by HPLC analysis. It is filed as ADME, organism-based. Also on record: dose 200 mg/kg, route po.
Data set [19] addresses Macrophage metalloelastase (Homo sapiens) (UniProt P39900). As to the kind of experiment: Inhibition of MMP-12 (unknown origin) at 20 uM by fluorometric assay.
Data set [20] has as its target Matrix metalloproteinase-14 (Homo sapiens) (UniProt P50281). Description: Inhibition of MMP-14 (unknown origin) at 20 uM by fluorometric assay.
Data set [21] deals with T2, Matrix metalloproteinase-9. As to the kind of experiment: Inhibition of MMP-9 (unknown origin) at 20 uM by fluorometric assay.
The target of data set [22] is T5, 72 kDa type IV collagenase. Description: Inhibition of MMP-2 (unknown origin) at 20 uM by fluorometric assay.
Target sequence in this assay (P08253 110-660 limits assumed): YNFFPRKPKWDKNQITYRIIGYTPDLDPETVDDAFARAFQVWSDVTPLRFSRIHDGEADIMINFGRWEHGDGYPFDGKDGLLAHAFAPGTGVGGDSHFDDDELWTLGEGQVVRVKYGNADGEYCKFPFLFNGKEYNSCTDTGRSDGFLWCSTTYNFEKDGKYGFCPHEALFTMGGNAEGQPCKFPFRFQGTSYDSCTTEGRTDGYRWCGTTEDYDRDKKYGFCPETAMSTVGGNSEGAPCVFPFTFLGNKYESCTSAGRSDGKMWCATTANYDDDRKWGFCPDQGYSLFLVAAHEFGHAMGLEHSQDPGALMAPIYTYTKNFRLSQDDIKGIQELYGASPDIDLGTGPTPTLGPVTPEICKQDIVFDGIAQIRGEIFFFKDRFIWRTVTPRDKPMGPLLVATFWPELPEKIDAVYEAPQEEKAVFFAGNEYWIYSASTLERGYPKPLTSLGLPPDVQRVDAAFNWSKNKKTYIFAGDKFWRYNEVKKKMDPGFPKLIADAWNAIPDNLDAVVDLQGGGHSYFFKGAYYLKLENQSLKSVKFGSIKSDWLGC
Data set [23] deals with T7, Matrilysin (Homo sapiens) (UniProt P09237).
T7 sequence (whole entry): T4 sequence (P09237 whole entry)
As to the kind of experiment: Inhibition of MMP-7 (unknown origin) at 20 uM by fluorometric assay.

The target in data set [24] is T6, Stromelysin-1. As to the kind of experiment: Inhibition of MMP-3 (unknown origin) at 20 uM by fluorometric assay.
Target sequence in this assay (P08254 100-477 limits assumed): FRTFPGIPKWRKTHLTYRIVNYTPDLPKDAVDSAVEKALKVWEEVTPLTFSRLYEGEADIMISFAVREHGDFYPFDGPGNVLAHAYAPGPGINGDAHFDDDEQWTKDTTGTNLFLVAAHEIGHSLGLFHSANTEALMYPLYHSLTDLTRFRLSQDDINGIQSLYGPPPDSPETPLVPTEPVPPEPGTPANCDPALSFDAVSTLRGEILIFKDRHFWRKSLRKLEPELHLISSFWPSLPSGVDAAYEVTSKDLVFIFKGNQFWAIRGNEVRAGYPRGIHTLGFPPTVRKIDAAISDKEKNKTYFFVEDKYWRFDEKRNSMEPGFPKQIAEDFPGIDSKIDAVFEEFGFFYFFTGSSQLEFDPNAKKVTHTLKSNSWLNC
The target in data set [25] is T3, Neutrophil collagenase. Description: Inhibition of MMP-8 (unknown origin) at 20 uM by fluorometric assay.
Target sequence in this assay (P22894 101-467 limits assumed): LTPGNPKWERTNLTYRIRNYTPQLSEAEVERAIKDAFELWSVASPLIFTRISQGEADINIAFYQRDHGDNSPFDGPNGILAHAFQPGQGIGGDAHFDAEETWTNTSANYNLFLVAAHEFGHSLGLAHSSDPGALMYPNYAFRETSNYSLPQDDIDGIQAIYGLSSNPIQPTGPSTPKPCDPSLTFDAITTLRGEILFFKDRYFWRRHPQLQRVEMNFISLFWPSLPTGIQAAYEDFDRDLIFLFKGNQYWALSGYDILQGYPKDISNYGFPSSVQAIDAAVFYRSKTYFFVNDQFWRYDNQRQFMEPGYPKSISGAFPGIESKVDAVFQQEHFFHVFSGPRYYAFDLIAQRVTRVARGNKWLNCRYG

Chain of Macrophage metalloelastase (Homo sapiens) (P39900 106-470 limits assumed): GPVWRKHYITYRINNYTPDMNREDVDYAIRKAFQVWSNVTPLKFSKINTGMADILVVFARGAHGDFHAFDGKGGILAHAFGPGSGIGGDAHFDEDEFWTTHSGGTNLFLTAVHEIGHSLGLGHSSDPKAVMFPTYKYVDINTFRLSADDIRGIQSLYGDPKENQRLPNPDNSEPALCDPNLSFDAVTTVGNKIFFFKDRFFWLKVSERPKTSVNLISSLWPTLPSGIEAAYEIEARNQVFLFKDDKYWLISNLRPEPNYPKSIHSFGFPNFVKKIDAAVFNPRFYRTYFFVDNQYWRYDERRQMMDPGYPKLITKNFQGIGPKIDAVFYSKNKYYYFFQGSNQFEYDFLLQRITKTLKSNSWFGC
Description for Collagenase 3: Inhibition of MMP-13 (unknown origin)

As for `COc1ccc(S(=O)(=O)N2CN(Cc3ccccc3)C(=O)CC2C(=O)NO)cc1` (stereo unspecified), the half-maximal inhibitory concentration (IC50) (as a rule, the concentration that gives 50% inhibition) on Interstitial collagenase [1] was 22.2 nM; in [2] it was 6.8 nM; against Neutrophil collagenase [3] it was 6.4 nM; against Matrilysin [4], greater than 10000 nM.

With `CCCN(C(CSC)C(=O)NO)S(=O)(=O)c1ccc(OC)cc1` (stereo unspecified), the concentration for half-maximal inhibition (IC50) in [5] was 0.2 nM; in data set [6] it was 0.7 nM.

Regarding `COc1ccc(S(=O)(=O)N(Cc2ccccc2)c2c(C(=O)NO)ccc3c(C(C)(C)C)cccc23)cc1`, the IC50 in [7] amounted to 401 nM; against Interstitial collagenase [1] it was 3100 nM; in [2] it was 9 nM; on Collagenase 3 it was 16 nM.

Consider `O=CN(O)C(CS(=O)(=O)c1ccc(Oc2ccc(OC(F)(F)F)cc2)cc1)[C@@H](O)CO` (stereo partly specified), for which the results for the half-inhibitory concentration (IC50) in [8] and in data set [9] were 0.36 nM and 0.092 nM, respectively.

With `CCCCOc1ccc(S(=O)(=O)C2(C(=O)NO)CCN(Cc3ccccc3)CC2)cc1`, the concentration for half-maximal inhibition (IC50) in data set [2] came to 3 nM; on Collagenase 3, 16 nM.

Consider `COc1ccc(S(=O)(=O)N2CCCC(C)(C)CC2C(=O)NO)cc1` (stereo unspecified), for which the IC50 in data set [10] was 0.5 nM; in data set [11], 1.4 nM; on Stromelysin-1 [12], 3.3 nM; at Neutrophil collagenase [13], 1.9 nM; at Matrilysin [14], 18 nM; at Interstitial collagenase [15] it was 2.4 nM.

As to `CC1(C)NC(=O)N(C[C@H](CS(=O)(=O)c2ccc(-c3ccc(OC(F)(F)F)cc3)cc2)N(O)C=O)C1=O`, the figures for the concentration for half-maximal inhibition (IC50) (in data set [8]; on Interstitial collagenase [16]; in [9]) were 0.86 nM, 82 nM and 0.34 nM, respectively.

With `COc1ccc(S(=O)(=O)N(C)c2c(C)cc(Cc3ccc(CN(C)C)cc3)cc2C(=O)NO)cc1`, the half-maximal inhibitory concentration (IC50) in data set [7] came to 243 nM; against Interstitial collagenase [1], 213 nM; in data set [2], 3 nM; on Collagenase 3, 11 nM.

For the molecule `Cc1ccc(C#Cc2ccc(S(=O)(=O)N[C@H](C(=O)O)C(C)C)s2)cc1`, in [17], the midpoint of inhibition, the IC50, lay at 14 nM. In addition, the highest concentration (Cmax) (commonly the maximum level reached in the sampled fluid or tissue) in data set [18] is 284 µM.

For `FC(F)(F)c1ccc(N2CC2Cn2cc(CCCCCCc3cn(CC4CN4c4ccc(C(F)(F)F)cc4)nn3)nn2)cc1` (stereo unspecified), the inhibition (in general, the drop in the measured response relative to a control, in per cent) was found to be 26% in data set [19]; 22.3% in data set [20]; 29.6% in data set [21]; 80.5% in data set [22]; 27.5% in [23]; 27.1% against Stromelysin-1 [24]. The inhibition on Neutrophil collagenase [25] worked out at 34.9%.
